Measurements taken from patent publication US20120064090A1, “THERAPEUTIC AGENT FOR CANCER HAVING REDUCED SENSITIVITY TO MOLECULAR TARGET DRUG AND PHARMACEUTICAL COMPOSITION FOR ENHANCING SENSITIVITY TO MOLECULAR TARGET DRUG” (KRINGLE PHARMA INC., priority 2009, published 2012).

What was measured:
H1975 [1] = assay: Effects of gefitinib or CL-387,785 on H1975, MTT growth rate; assay type: cell-based, human; conditions: 0.01 to 10 μM, 72 hours, FIG. 8
Protocol: (§1) After 80% confluent H1975 was stripped and collected, the cells were seeded at 2×10^3 cells/well on 96-well plates and cultured for 24 hours. After that, gefitinib or CL-387,785 was added to each well so that the final concentration might be set to the seven levels of 0.01 to 10 μM, and then culture was continued for 72 hours. After that, 50 μl, of an MTT solution (2 mg/mL, manufactured by Sigma) was added and incubation was performed at 37° C. for 2 hours. The culture media were removed, and dark blue crystals were dissolved by adding 100 μL of DMSO. The absorbance was measured with a microplate reader MTP-120 (Corona Electric Co., Ltd.) at the detection and reference wavelengths of 550 nm and 630 nm, respectively. The growth rate was shown as a relative value based on an untreated control. Each experiment was performed in triplicate and repeated thrice independently.

H1975 [2] = assay: Effects of SU11274 on H1975 with HGF-induced CL-387,785-resistance; assay type: cell-based, human; conditions: CL-387,785 0.3 μM, HGF 50 ng/mL, antibody 2 μg/mL, NK4 0.3 μM, 72 hours, FIG. 12
Protocol: H1975 was seeded at 2×10^3 cells/well on 96-well plates and cultured for 24 hours. […] The degree of cell growth was measured by the MTT method and the growth rate was calculated in the same manner as in the above (a).

PC-9 [3] = assay: Effects of SU11274 on PC-9 with HGF-induced gefitinib-resistance; assay type: cell-based, human; conditions: HGF 20 ng/mL, gefitinib 0.3 μM, antibody 1 μg/mL, NK4 0.3 μM, SU11274 0.3 μM, 72 hours, FIG. 11
Protocol: as §1, with “PC-9” for “After 80% confluent H1975”, “was” for “was stripped and collected, the cells were”, “After that, gefitinib or CL-387,785 was added to each well so that the final concentration might be set to the seven levels of 0.01 to 10 μM, and then culture was continued for 72 hours.” left out, “μL” for “μl,”

[4] = tested on: tumor formed of PC-9 and MRC-5 cells; assay: Xenograft tumor (PC-9 + MRC-5) transplanted into SCID mice; assay type: in vivo; conditions: PC-9 + MRC-5 s.c., days 4 to 16, gefitinib 25 mg/kg/day oral, antibody 5 mg/kg/day i.p., NK4 9 mg/kg/day i.p., FIG. 6
Protocol: SCID mice (female, 5 weeks old) were purchased from CLEA Japan.
100 μL of a cell suspension containing PC-9 (5×10^6 cells) and MRC-5 (5×10^6 cells) was subcutaneously inoculated from the back skin of each SCID mouse. Four days later, mice bearing a tumor exceeding 4 mm in diameter were randomly divided into 6 groups (5 mice per group) as shown in Table 1.
In gefitinib-treated groups (groups 4, 5 and 6 in Table 1), gefitinib (25 mg/kg/day) was orally administered once daily in the morning for 13 days from 4 days to 16 days after cell inoculation. In gefitinib-non-treated groups (groups 1, 2 and 3 in Table 1), a water containing 1% Tween80 was orally administered once daily in a similar manner to the above. In anti-HGF neutralizing antibody-treated groups (groups 2 and 5 in Table 1), the anti-HGF neutralizing antibody (5 mg/kg/day) was intraperitoneally administered once daily immediately after gefitinib administration for 13 days from 4 days to 16 days after cell inoculation. In NK4-treated groups (groups 3 and 6 in Table 1), NK4 (9 mg/kg/day) was intraperitoneally administered in divided portions twice a day in the morning immediately after gefitinib administration and in the evening for 13 days from 4 days to 16 days after cell inoculation.
The width and length of tumor were measured every other day, and the tumor area (width×length) was calculated. […]

PC-9/mock = assay: PC-9 transfected with vector without the HGF gene, MTT growth rate; assay type: cell-based, human; conditions: gefitinib 0.3 μM, 72 hours, FIG. 4
Protocol: (§2) An HGF expression vector was prepared according to the description in “Ueki T, Kaneda Y, Tsutsui H, et al. Hepatocyte growth factor gene therapy of liver cirrhosis in rats. Nature Medicine 5, 226-230 (1 Feb. 1999)”. On the day before transfection, PC-9 prepared in a culture medium without any antibiotics was seeded at 2×10^4 cells/400 μL on 24-well plates and then cultured for 24 hours. The HGF expression vector was transfected into the cells by use of Lipofectamine 2000 (1 μL) (PC-9/HGF). As a control, a vector without the HGF gene was similarly transfected into the cells (PC-9/mock). After 24-hour culture, the cells were washed with PBS. Then, 0.3 μM of gefitinib (final concentration), 2 μg/mL of the anti-human HGF neutralizing antibody (final concentration) and/or 2 μg/mL of the control IgG (final concentration) were added, or not added, and then culture was continued for 72 hours. After 72-hour culture, the degree of cell growth was measured by the MTT method and the growth rate was calculated in the same manner as in Example 1.

PC-9/HGF = assay: PC-9 transfected with HGF expression vector, MTT growth rate; assay type: cell-based, human; conditions: gefitinib 0.3 μM, 72 hours, FIG. 4
Protocol: as §2

HCC827 [5] = assay: Induction of gefitinib resistance by various growth factors; assay type: cell-based, human; conditions: growth factor 20 ng/mL, gefitinib 0.3 or 1 μM, 72 hours, FIG. 3(b)
Protocol: (§3) In the same manner as in the above (a), PC-9 or HCC827 was seeded at 2×10^3 cells/well on 96-well plates, and after 24-hour culture, gefitinib was added to the wells so that the final concentration might be 0.3 or 1 μM. HGF, EGF, TGF-α or IGF-I was further added to give a final concentration of 20 ng/mL and then culture was continued for 72 hours. Wells without gefitinib and wells into which a culture medium was added instead of the growth factors were prepared for this experiment. After 72-hour culture, the degree of cell growth was measured by the MTT method and the growth rate was calculated in the same manner as in the above (a).

PC-9 [6] = assay: as above; assay type: cell-based, human; conditions: growth factor 20 ng/mL, gefitinib 0.3 or 1 μM, 72 hours, FIG. 3(a)
Protocol: as §3

PC-9 [7] = assay: Single culture of PC-9 with or without HGF, MTT growth rate; assay type: cell-based, human; conditions: PC-9 single culture; HGF 50 ng/mL; gefitinib 0.3 μM; 72 hours; FIG. 5
Protocol: In the case of single culture of PC-9, PC-9 was seeded in each well of 24-well plates at 8×10^3 cells/700 μL and then cultured for 24 hours. After that, 50 ng/mL of HGF (final concentration) was added or not added, 0.3 μM of gefitinib (final concentration) was added or not added, 2 μg/mL of the control IgG (final concentration) or 2 μg/mL of the anti-human HGF neutralizing antibody (final concentration) was added or not added, and then culture was continued for 72 hours. After 72-hour culture, the degree of cell growth was measured by the MTT method and the growth rate was calculated in the same manner as in Example 1.

HCC827 [8] = assay: Induction of gefitinib resistance by HGF, MTT growth rate; assay type: cell-based, human; conditions: HGF 2 to 50 ng/mL, gefitinib 0.01 to 1 μM, 72-hour culture, FIG. 1(b)
Protocol: (§4) PC-9 or HCC827 was seeded at 2×10^3 cells/well on 96-well plates and cultured for 24 hours. After that, gefitinib and HGF were added to the wells in combinations thereof at different concentrations. Specifically, gefitinib was added to each well so that the final concentration might be set to the five levels of 0.01 to 1 μM. Wells without gefitinib were also prepared for this experiment. An HGF solution was added to the wells so that the final concentration might be set to the five levels of 2 to 50 ng/mL. Wells without HGF were also prepared for this experiment. After 72-hour culture, 50 μL of an MTT solution (2 mg/mL, manufactured by Sigma) was added and incubation was performed at 37° C. for 2 hours. The culture media were removed, and dark blue crystals were dissolved by adding 100 μL of DMSO. The absorbance was measured with a microplate reader MTP-120 (Corona Electric Co., Ltd.) at the detection and reference wavelengths of 550 nm and 630 nm, respectively. The growth rate was shown as a relative value based on an untreated control. Each experiment was performed in triplicate and repeated thrice independently.

PC-9 [9] = assay: as above; assay type: cell-based, human; conditions: HGF 2 to 50 ng/mL, gefitinib 0.01 to 1 μM, 72-hour culture, FIG. 1(a)
Protocol: as §4

H1975 [10] = assay: Induction of CL-387,785 resistance by HGF; assay type: cell-based, human; conditions: HGF 50 ng/mL, CL-387,785 0.03 to 3 μM, 72 hours, FIG. 9
Protocol: In the same manner as in the above (a), H1975 was seeded at 2×10^3 cells/well on 96-well plates. After 24-hour culture, CL-387,785 was added to the wells so that the final concentration might be set to the five levels of 0.03 to 3 μM. An HGF solution was further added to give a final concentration of 50 ng/mL, or was not added, and then culture was continued for 72 hours. The degree of cell growth was measured by the MTT method and the growth rate was calculated in the same manner as in the above (a).

Molecule: CC#CC(=O)Nc1ccc2ncnc(Nc3cccc(Br)c3)c2c1 [CL-387,785]
- sensitivity of H1975 to the drug (growth rate) (H1975 [1]): sensitive

Molecule: Cc1[nH]c(/C=C2\C(=O)Nc3ccc(S(=O)(=O)N(C)c4cccc(Cl)c4)cc32)c(C)c1C(=O)N1CCN(C)CC1 [SU11274, reference compound]
- inhibition of HGF-induced hyposensitivity of H1975 to CL-387,785 (H1975 [2]): significantly inhibited
- inhibition of HGF-induced hyposensitivity of PC-9 to gefitinib (PC-9 [3]): significantly inhibited

Molecule: COc1cc2ncnc(Nc3ccc(F)c(Cl)c3)c2cc1OCCCN1CCOCC1 [gefitinib]
- sensitivity of H1975 to the drug (growth rate) (H1975 [1]): resistant
- tumor volume / tumor growth over time [4]: increase in tumor volume was inhibited, but no significant regression was observed
- sensitivity of cells to gefitinib (growth rate) (PC-9/mock): sensitive
- sensitivity of cells to gefitinib (growth rate) (PC-9/HGF): less sensitive

Molecule: EGF (NSDSECPLSHDGYCLHDGVCMYIEALDKYACNCVVGYIGERCQYRDLKWWELR; Epidermal growth factor; UniProt P01133 971-1023, looked up) [growth factor purchased from Invitrogen]
- induction of gefitinib resistance by growth factor (growth rate) (HCC827 [5]): slightly induced gefitinib resistance
- induction of gefitinib resistance by growth factor (growth rate) (PC-9 [6]): slightly induced gefitinib resistance

Molecule: HGF
- induction of gefitinib resistance by growth factor (growth rate) (HCC827 [5]): remarkable capability of inducing gefitinib resistance
- induction of gefitinib resistance by growth factor (growth rate) (PC-9 [6]): remarkable capability of inducing gefitinib resistance
- induction of gefitinib resistance (hyposensitivity) of PC-9 (PC-9 [7]): induced gefitinib resistance
- induction of gefitinib resistance (growth rate) (HCC827 [8]): induced gefitinib resistance of PC-9 and HCC827 in a concentration-dependent manner
- induction of gefitinib resistance (growth rate) (PC-9 [9]): induced gefitinib resistance of PC-9 and HCC827 in a concentration-dependent manner
- effect of HGF on sensitivity of H1975 to CL-387,785 (H1975 [10]): reduced the sensitivity of H1975 to CL-387,785

Molecule: IGF-I
- induction of gefitinib resistance by growth factor (growth rate) (HCC827 [5]): slightly induced gefitinib resistance
- induction of gefitinib resistance by growth factor (growth rate) (PC-9 [6]): slightly induced gefitinib resistance

Molecule: TGF-α
- induction of gefitinib resistance by growth factor (growth rate) (HCC827 [5]): slightly induced gefitinib resistance
- induction of gefitinib resistance by growth factor (growth rate) (PC-9 [6]): slightly induced gefitinib resistance
